In ChEMBL document CHEMBL1201862, “PubChem BioAssay data set” (2004):
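1) Cells in 96-well plates. 2) Compound, 48 h, 5 concentrations. 3) Linear interpolation between surrounding doses. 4) Unreached endpoint = highest concentration. GI50 is the concentration that inhibits growth by half.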 Active and inactive are the calls of the source. Cut-off read from the data, not from the text of the source: active = GI50 up to about 1.1 µM and inactive = higher.

Experiments:
Assay in all cases: NCI anticancer screen, dose series, 48 h
[1] = test system: CCRF-CEM
[2] = test system: K562
[3] = test system: SF-295
[4] = test system: KM12
[5] = test system: M14
[6] = test system: TK-10
[7] = test system: DMS-114
[8] = test system: UO-31
[9] = test system: HOP-62
[10] = test system: IGROV-1
[11] = test system: U-251
[12] = test system: NCI-H460
[13] = test system: COLO 205
[14] = test system: KM-20L2
[15] = test system: Malme-3M
[16] = test system: 786-0
[17] = test system: SF-268
[18] = test system: SNB-78
[19] = test system: XF498
[20] = test system: LXFL 529
[21] = test system: HOP-18
[22] = test system: SK-MEL-5
[23] = test system: SN12C
[24] = test system: UACC-257
[25] = test system: SK-MEL-2
[26] = test system: SK-MEL-28
[27] = test system: UACC-62
[28] = test system: EKVX
[29] = test system: RXF 393
[30] = test system: HCT-15
[31] = test system: OVCAR-8
[32] = test system: SW-620
[33] = test system: ACHN
[34] = test system: HL-60
[35] = test system: SR
[36] = test system: A549
[37] = test system: HOP-92
[38] = test system: NCI-H23
[39] = test system: OVCAR-5
[40] = test system: CAKI-1
[41] = test system: HCC 2998
[42] = test system: DLD-1
[43] = test system: OVCAR-3
[44] = test system: SK-OV-3
[45] = test system: MOLT-4
[46] = test system: M19-MEL
[47] = test system: NCI-H226
[48] = test system: HCT-116
[49] = test system: LOX IMVI
[50] = test system: SNB-19
[51] = test system: HT-29
[52] = test system: NCI-H522
[53] = test system: RPMI-8226
[54] = test system: SF-539
[55] = test system: A498

Structure (SMILES): O=C(/C=C/c1ccccc1)/C=C/c1ccccc1O
- GI50 [1]: 17 µM (inactive)
- GI50 [2]: 16.4 µM (inactive)
- GI50 [3]: 24.4 µM (inactive)
- GI50 [4]: 17.8 µM (inactive)
- GI50 [5]: 21 µM (inactive)
- GI50 [6]: 30.1 µM (inactive)
- GI50 [7]: 17.8 µM (inactive)
- GI50 [8]: 16.4 µM (inactive)
- GI50 [9]: 38.8 µM (inactive)
- GI50 [10]: 18.7 µM (inactive)
- GI50 [11]: 17.6 µM (inactive)
- GI50 [12]: 19.1 µM (inactive)
- GI50 [13]: 17.3 µM (inactive)
- GI50 [14]: 19.1 µM (inactive)
- GI50 [15]: < 0.01 µM (active)
- GI50 [16]: 16.7 µM (inactive)
- GI50 [17]: 32.9 µM (inactive)
- GI50 [18]: 37.3 µM (inactive)
- GI50 [19]: 49.1 µM (inactive)
- GI50 [20]: 16.8 µM (inactive)
- GI50 [21]: 0.488 µM (active)
- GI50 [22]: 20.1 µM (inactive)
- GI50 [23]: 16.2 µM (inactive)
- GI50 [24]: 20.8 µM (inactive)
- GI50 [25]: 59.3 µM (inactive)
- GI50 [26]: 34.6 µM (inactive)
- GI50 [27]: 19 µM (inactive)
- GI50 [28]: 18.8 µM (inactive)
- GI50 [29]: 20.8 µM (inactive)
- GI50 [30]: 15.9 µM
- GI50 [31]: 17 µM (inactive)
- GI50 [32]: 11.6 µM (inactive)
- GI50 [33]: 19.4 µM (inactive)
- GI50 [34]: 12.9 µM (inactive)
- GI50 [35]: 26.6 µM (inactive)
- GI50 [36]: 23.9 µM (inactive)
- GI50 [37]: 83.8 µM (inactive)
- GI50 [38]: 24.9 µM (inactive)
- GI50 [39]: 29.3 µM (inactive)
- GI50 [40]: 22 µM (inactive)
- GI50 [41]: 12.5 µM (inactive)
- GI50 [42]: 18 µM (inactive)
- GI50 [43]: 0.0401 µM (active)
- GI50 [44]: 19.1 µM (inactive)
- GI50 [45]: 19.8 µM (inactive)
- GI50 [46]: 17.9 µM (inactive)
- GI50 [47]: 22 µM (inactive)
- GI50 [48]: 15.1 µM (inactive)
- GI50 [49]: 18.2 µM (inactive)
- GI50 [50]: 23.3 µM (inactive)
- GI50 [51]: 24.4 µM (inactive)
- GI50 [52]: 15.5 µM (inactive)
- GI50 [53]: 16.4 µM (inactive)
- GI50 [54]: 22 µM (inactive)
- GI50 [55]: 30.1 µM (inactive)
